This passage reports chromatographic logP and mortality results from patent EP3241830A1, “CONDENSED BICYCLIC HETEROCYCLIC DERIVATIVES AS PESTICIDES” (Bayer CropScience Aktiengesellschaft, priority 2016, dated 2017).

Data set [1] can be described thus: logP determination by HPLC on a reversed-phase column (C18), EEC Directive 79/831 Annex V.A8. The data set is classed as physicochemical. The settings on record: LC-MS in the acidic range, pH 2,7, 0,1 % aqueous formic acid and acetonitrile, 55°C, read-out: logP (HCOOH). On the procedure:
Die Messung der logP Werte erfolgt gemäß EEC Directive 79/831 Annex V.A8 durch HPLC (High Performance Liquid Chromatography) an einer Phasenumkehrsäule (C 18). Temperatur: 55°C.
Die Bestimmung mit der LC-MS im sauren Bereich erfolgt bei pH 2,7 mit 0,1 % wässriger Ameisensäure und Acetonitril (enthält 0,1% Ameisensäure) als Eluenten; linearer Gradient von 10% Acetonitril bis 95% Acetonitril. In der Tabelle logP (HCOOH) genannt.
Die Eichung erfolgt mit unverzweigten Alkan-2-onen (mit 3 bis 16 Kohlenstoffatomen), deren logP-Werte bekannt sind (Bestimmung der logP-Werte anhand der Retentionszeiten durch lineare Interpolation zwischen zwei aufeinander folgenden Alkanonen).

In data set [2] the test system is Phaedon cochleariae. In words: Phaedon cochleariae spray test. It counts as in vivo. The note with it: foliar, 168 h, after 7 days, sprayed Chinese cabbage leaf discs (Brassica pekinensis) with larvae, 100 % = all beetle larvae killed, read-out: Wirkung. The source says: Lösungsmittel: • 78,0 Gewichtsteile Aceton • 1,5 Gewichtsteile Dimethylformamid Emulgator: Alkylarylpolyglykolether
(§1) Zur Herstellung einer zweckmäßigen Wirkstoffzubereitung löst man 1 Gewichtsteil Wirkstoff mit den angegebenen Gewichtsteilen Lösungsmittel und füllt mit Wasser, welches eine Emulgatorkonzentration von 1000 ppm enthält, bis zum Erreichen der gewünschten Konzentration auf. Zur Herstellung weiterer Testkonzentrationen wird mit emulgatorhaltigem Wasser verdünnt.
Chinakohlblattscheiben (Brassica pekinensis) werden mit einer Wirkstoffzubereitung der gewünschten Konzentration gespritzt und nach dem Abtrocknen mit Larven des Meerrettichblattkäfers (Phaedon cochleariae) besetzt.
Nach 7 Tagen wird die Wirkung in % bestimmt. Dabei bedeutet 100 %, dass alle Käferlarven abgetötet wurden; 0 % bedeutet, dass keine Käferlarven abgetötet wurden.

Data set [3] deals with Myzus persicae. In words: Myzus persicae spray test. The data set is classed as in vivo. The note with it: foliar, 120 h, after 5 days, sprayed Chinese cabbage leaf discs (Brassica pekinensis) infested with all stages, 100 % = all aphids killed, read-out: Wirkung.
From the text: Lösungsmittel: • 78 Gewichtsteile Aceton • 1,5 Gewichtsteile Dimethylformamid Emulgator: Alkylarylpolyglykolether
as §1
Chinakohlblattscheiben (Brassica pekinensis), die von allen Stadien der Grünen Pfirsichblattlaus (Myzus persicae) befallen sind, werden mit einer Wirkstoffzubereitung der gewünschten Konzentration gespritzt.
Nach 5 Tagen wird die Wirkung in % bestimmt. Dabei bedeutet 100 %, dass alle Blattläuse abgetötet wurden; 0 % bedeutet, dass keine Blattläuse abgetötet wurden.

On to `CCS(=O)(=O)c1c(-c2nc3cc(C(F)(F)F)ncc3n2C)n(C)c2cc(Cl)ccc12` [Bsp. I-1, 2-(6-Chlor-3-ethylsulfonyl-1-methyl-indol-2-yl)-3-methyl-6-(trifluormethyl)imidazo[4,5-c]pyridin], for which the chromatographic logP in data set [1] was 3.11. Moreover, the mortality at 500 g/ha was 100% in data set [2] and 90% in data set [3].

For the compound `CCSc1c(-c2nc3cc(C(F)(F)F)ncc3n2C)n(C)c2cc(Cl)ccc12` [Bsp. I-2, 2-(6-Chlor-3-ethylsulfanyl-1-methyl-indol-2-yl)-3-methyl-6-(trifluormethyl)imidazo[4,5-c]pyridin], the chromatographic logP in data set [1] came to 4.51.

In the case of `Cn1c(-c2c(Cl)c3ccc(Cl)cc3n2C)nc2cc(C(F)(F)F)ncc21` [Bsp. V-1, 2-(3,6-Dichlor-1-methyl-indol-2-yl)-3-methyl-6-(trifluormethyl)imidazo[4,5-c]pyridin], the chromatographic logP in data set [1] is 4.23.
